Results: publication PMC3827205, “Discovery and Characterization of a Novel Cyclic Peptide That Effectively Inhibits Ephrin Binding to the EphA4 Receptor and Displays Anti-Angiogenesis Activity” (PLoS ONE, 2013)
Several values for one entry are separate records, joined by “and”; a condition that tells them apart may be missing. Equal values may be shown once. Positions of bridges follow the written chain, without caps; N, C: chain ends. Residues, ends and D or L forms follow the SMILES beside them. No end group written: not given here.

Experiments:
EphA4 Fc = test: Phage binding assay (phage-displayed peptide on EphA4 Fc); set-up: species or system mouse; settings: 4 μg/ml EphA4 Fc coating, room temperature, 2 h, HRP-anti-M13, ABTS, 405 nm, versus BSA control
Procedure: A pre-made library consisting of a disulfide-constrained nonapeptide (Ph.D.-C7C) library (New England Biolabs, Beverly, MA) was used for panning on EphA4. Recombinant mouse EphA4 Fc Chimera protein (R&D Systems, Minneapolis, MN) was incubated overnight at 4°C in 96-well ELISA plate wells at concentrations of 10 μg/ml in coating buffer (0.1 M NaHCO3). Wells were blocked for 1 h with blocking buffer (0.1 M NaHCO3, 5 mg/ml BSA, 0.02%NaN3), and rinsed with TBST (0.1% Tween20 in TBS). In round 1 of panning, 5×10^10 plaque-forming units (PFUs) of the phage library in 100 μl TBST were incubated for 1h at room temperature in EphA4 receptor-coated wells. After washing, the remaining bound phage were eluted with 100 μl of 0.2 M glycine-HCl (pH 2.2), and then neutralized by 15 μl 1M Tris-HCl (pH9.1). The entire eluate was used to infect early-log phase ER2738 host bacteria and amplified (4.5 h, 37 °C). The phage were concentrated and stored according to the manufacturer’s recommendations. In rounds 2, 3, and 4, we added 4.9×10^10, 1.81×10^11, 1.95×10^11 PFUs of the amplified phage pool from the previous round, respectively, to an EphA4 Fc-coated well and a BSA coated well. The phages were panned as described for round 1, except eluted phages were tittered prior to amplification to assess enrichment.
Phages binding to EphA4 receptor-coated plates were quantified using an anti-phage antibody conjugated to horseradish peroxidase (M13 phage detection kit, Amersham Pharmacia Biotech, Piscataway, NJ) with 2,2-azino-bis(3-ethylbenzthiazoline-6-sulfonic acid) as substrate. A 50 μl of 4 μg/ml EphA4 Fc or 5 mg/ml BSA (as a negative control) in coating buffer (0.1 M NaHCO3) was incubated overnight at 4°C in 96-well ELISA plate wells. Wells were blocked for 30 minutes with blocking buffer, and rinsed with TBST. A 50 μl of amplified phage was added to each well and incubated at room temperature for 2 h. […] Absorbance of each well was read at 405 nm with a Synergy 2 reader (BioTek, Synergy 2). […]

[1] = biological target: T1, EphA4 Fc Chimera protein / ephrinA5 (Mus musculus, UniProt Q03137); test: ELISA-based binding assay: inhibition of ephrinA5 AP binding to immobilized EphA4 Fc; assay type: biochemical
T1 construct: using the immobilized EphA4 extracellular domain fused to human Fc; purchased R&D Systems, Minneapolis, MN
Procedure: For Eph receptor binding studies, 50 μl of ephrin A5 (5 μg/ml, kindly provided by Dr. Elena B. Pasquale, Sanford-Burnham Medical Research Institute) was coated onto each well on a 96-well ELISA plate (Corning, #3690) overnight at 4°C. The wells were blocked with 100 μl blocking buffer (Pierce, #37543) for 1 h and then rinsed with PBS. A 1 μg of recombinant mouse EphA4 Fc Chimera protein (R&D Systems, Minneapolis, MN) in EIA buffer (1% BSA, 0.05% Tween 20 in TBS) was then incubated in each well for 1.5 h at room temperature. The EphA4 Fc-coated wells were rinsed with PBS buffer and incubated for 1.5 h with different peptide concentrations and same amount of alkaline phosphatase (AP)-tagged ephrin A5 in a total volume of 50 μl. After the unbound peptide and ephrin had been washed away, bound ephrin-A5 AP was quantified using p-nitrophenylphosphate as a substrate by a Synergy2 reader (BioTek, Winooski, VT) with wavelength of 405 nm. Data were fitted using nonlinear regression. IC50 values were calculated using Prism (GraphPad Software Inc.).

EphA4 = settings: ref [25]; cited from earlier work
Description: A promising strategy for anti-angiogenic cancer therapies is to antagonize Eph-ephrin interactions by interfering with the Eph receptor/ephrin system. Several different synthetic peptides and small molecules have been studied for this purpose; the advantage of these artificial ligands is that they can show a much higher selectivity compared to the physiological ephrin ligands.

HUVEC = HUVEC viability assay (CellTiter-Blue); assay type: cell-based, human; settings: for cytotoxic effects on HUVECs: 48 h, 37°C, CellTiter-Blue, fluorescence 540Ex/600Em, at least three independent experiments
Procedure: The cytotoxic effects of the TYY cyclic peptide were measured at different concentrations by plating 1×10^4 HUVEC cells (ATCC) per well in 96-well plates and determining cell survival. Cells were treated with various concentrations of TYY (10 μM and 20 μM) and incubated in an incubator with a 5% CO2 and 95% humidity atmosphere at 37°C for 24 h and 48 h. After incubation, cell viability was measured using a CellTiter-Blue assay kit (Promega) according to the manufacturer’s instructions. Briefly, 20 μl of CellTiter-Blue reagent was added to 100 μl of culture media and cells were incubated for 2-4 hours at 37°C. Afterward, fluorescence at 540Ex/600Em was measured using a fluorescence plate reader (BioTek, Synergy 2). Each experimental data point was generated from at least three independent experiments.
Figure 3 Effects of the TYY cyclic peptide on viability of HUVEC cells. The HUVECs were treated with the indicated concentrations of the TYY peptide. A 0.1% DMSO control was used because the highest concentration of the DMSO vehicle in the TYY solutions was 0.1%. The cell viability was determined by CellTiter-Blue assays 24 h and 48 h after addition of TYY. Each experimental data point was generated from at least three independent experiments.

T1 sequence (Q03137 20-547 limits assumed, change not shown): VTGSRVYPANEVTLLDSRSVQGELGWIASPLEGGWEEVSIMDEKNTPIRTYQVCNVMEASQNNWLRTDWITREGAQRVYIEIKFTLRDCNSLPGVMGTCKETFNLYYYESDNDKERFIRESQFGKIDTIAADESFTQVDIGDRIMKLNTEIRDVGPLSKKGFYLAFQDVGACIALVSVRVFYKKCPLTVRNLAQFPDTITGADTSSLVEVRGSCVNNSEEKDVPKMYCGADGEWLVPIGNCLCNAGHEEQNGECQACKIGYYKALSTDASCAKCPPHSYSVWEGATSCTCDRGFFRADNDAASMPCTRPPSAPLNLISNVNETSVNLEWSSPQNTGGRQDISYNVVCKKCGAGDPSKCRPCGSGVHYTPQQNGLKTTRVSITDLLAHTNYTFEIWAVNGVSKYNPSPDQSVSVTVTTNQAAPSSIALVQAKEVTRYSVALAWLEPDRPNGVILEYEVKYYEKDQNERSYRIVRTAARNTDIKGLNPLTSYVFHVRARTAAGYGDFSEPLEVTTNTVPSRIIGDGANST

With “CWPIKVGWC (disulfide 1-9) [cyclic nonapeptide c[…] from M13 phage display library, tested on phage]” the “binding of phage clones to EphA4 Fc” value (EphA4 Fc) was “significant binding”.
For “CLMTSQFRC (disulfide 1-9) [cyclic nonapeptide c[…] from M13 phage display library, tested on phage]”, the “binding of phage clones to EphA4 Fc” value (EphA4 Fc) was “significant binding”.
In the case of “CSWYWPLPC (disulfide 1-9) [disulfide-constrained cyclic nonapeptide c[…] from M13 phage display library]”, the “inhibition of ephrin A5 binding to EphA4” value ([1]; 50 μM peptide, ELISA, 1.5 h) is reported as 40%, the “inhibition of EphA4 binding with AP-tagged ephrinA5 (in words)” value ([1]; dose dependence) is reported as “dose-dependent inhibition” and the “binding of phage clones to EphA4 Fc” value (EphA4 Fc) is reported as “significant binding”.
In the case of “KYLPYWPVLSSL [linear 12-residue KYL peptide (…), positive control, reference compound]”, the “inhibition of EphA4-ephrinA5 binding” value ([1]; 25 μM, positive control, ELISA, 1.5 h, three independent measurements) is listed as 92% and the “artificial ligand of EphA4” value (EphA4) is listed as “act as artificial ligands”.
For `CC(C)C[C@@H]1NC(=O)[C@@H]2CCCN2C(=O)[C@H](Cc2c[nH]c3ccccc23)NC(=O)[C@H](Cc2ccc(O)cc2)NC(=O)[C@H](Cc2ccc(O)cc2)NC(=O)[C@H]([C@@H](C)O)NC(=O)[C@@H](N)CSSC[C@@H](C(N)=O)NC(=O)[C@@H]2CCCN2C1=O` [TYY] (H-CTYYWPLPC-NH2; disulfide 1-9), the “inhibition of EphA4-ephrinA5 binding” value ([1]; 100 nM peptide, ELISA, 1.5 h, three independent measurements) was 24.8%, the “inhibition of EphA4-ephrinA5 binding” value ([1]; 100 μM peptide, ELISA, 1.5 h, three independent measurements) was 94.06% and 94% and the IC50 ([1]; ELISA, ephrin A5-coated plate, EphA4 Fc, AP-tagged ephrin A5, 1.5 h incubation, p-nitrophenylphosphate, 405 nm, nonlinear regression (Prism), three independent measurements) was 11.7 µM. For the same molecule, the “cytotoxic effects on HUVECs” value (HUVEC; 10 μM) was “no cytotoxic effects on HUVECs”, the “cytotoxic effects on HUVECs” value (HUVEC; 20 μM) was “no cytotoxic effects on HUVECs” and the “cytotoxic effects in HUVECs” value (HUVEC; concentrations up to 20 μM) was “no cytotoxic effects in the HUVECs”.
